The record followed here is patent EP1709964A2, “A method of cosmetic depigmentation care by applying at least one aurone” (ENGELHARD LYON, priority 2005, dated 2006).

For one data set, the target named is T1, Human tyrosinase (Homo sapiens, UniProt P14679).
T1 construct: Normal human melanocytes (originating from abdominal plasty) are sown in a 24-well plate; endogenous in cells; host or cells: normal human melanocytes from abdominal plasty; donors of light, brown and black phototype
T1 sequence (P14679 19-529): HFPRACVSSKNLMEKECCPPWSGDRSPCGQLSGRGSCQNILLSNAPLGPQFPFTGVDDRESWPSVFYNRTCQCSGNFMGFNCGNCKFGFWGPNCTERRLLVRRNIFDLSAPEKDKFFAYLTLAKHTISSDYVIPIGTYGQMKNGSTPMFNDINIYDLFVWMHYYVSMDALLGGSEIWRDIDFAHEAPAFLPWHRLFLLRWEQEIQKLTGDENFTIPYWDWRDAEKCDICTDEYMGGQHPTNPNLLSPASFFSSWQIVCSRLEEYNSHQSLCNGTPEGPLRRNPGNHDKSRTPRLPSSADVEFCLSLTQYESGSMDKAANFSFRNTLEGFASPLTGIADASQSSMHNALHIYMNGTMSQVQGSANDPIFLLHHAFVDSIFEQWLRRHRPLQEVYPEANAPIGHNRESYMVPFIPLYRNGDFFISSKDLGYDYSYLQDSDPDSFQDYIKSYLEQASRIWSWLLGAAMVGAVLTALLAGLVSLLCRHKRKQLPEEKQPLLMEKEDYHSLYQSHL
The data set is described as follows: Inhibition of human tyrosinase in a monolayer after 24 h application of the actives on normal human melanocytes (MBTH/L-Dopa, OD 490 nm/protein). Format: cell-based. To be noted: for inhibition at 100 µM: 10^-4M; for inhibition at 100 µM / inhibition at 10 µM: read-out: Inhibition of human tyrosinase after application on normal human melanocytes, percentage inhibition; for Inhibition (%): model of Example 15. The method, then: Normal human melanocytes (originating from abdominal plasty) are sown in a 24-well plate at the rate of 80,000 cells per well. They are cultivated up to confluence and the actives are applied for 24 hours in the culture media. After 24 hours, the media are removed and the melanocytes are picked up by mechanical action. An extraction is made by heat shock and the supernatants are then recovered and then incubated with MBTH (Sigma) and L-Dopa (Sigma).
The compound obtained in Example 9b was tested on melanocytes originating from various donors but of light phototypes according to the method described in Example 15. […] Table 6 : Inhibition of tyrosinase by compound 9b on 4 different donors.
The compound obtained in Example 9b is tested on cultures of melanocytes originating from 2 donors of brown phototypes and from one donor of negroid phototype. The method applied is that described in Example 15.
A study is made with molecules known in the literature for their depigmenting activity. These molecules are applied to the model described in Example 15 so as to compare their efficiency with respect to the aurones described above.

Another data set deals with normal human melanocytes. The data set is described as follows: Cytotoxicity by PNPP determination (percentage viability). The note with it: 24 hours at 37°C, with respect to non-treated wells. The format is cell-based. The method, then: The cytotoxicity of the actives is studied on normal human melanocytes in a 24-well plate by a determination with PNPP (P-nitrophenyl phosphate), a substance which is converted into p-nitrophenol by the intracellular acid phosphatases of viable cells.
The absorbance of p-nitrophenol at 405 nm is directly proportional to the number of viable cells.
The actives are tested at 2 different concentrations (10^-4 M and 10^-5 M) and are added to the culture medium and are incubated at 37°C for 24 hours. The determination with PNPP is carried out on a cell mat and the results are expressed as a percentage viability with respect to the negative control (non-treated wells). The results obtained are summarized in Table 9 below : Tableau 9 : Percentages viability obtained for the various aurone derivatives on normal human melanocytes (the molecules were tested at 2 concentrations 10^-4 and 10^-5 M.

The test system of the next data set is tyrosinase from mushroom. The data set is described as follows: In vitro test of the inhibition of isolated tyrosinase (L-DOPA to dopachrome, OD 490 nm). The format is biochemical. The note with it: for Inhibition of tyrosinase from mushroom, percentage inhibition: 490 nm. The text has this:
Tyrosinase catalyses the formation of L-dopaquinone, and then dopachrome, from L-Dopa. Dopachrome is a colored compound which is quantifiable by visible spectrophotometry at 490 nm. The use of an active which is capable of modifying the enzymatic activity manifests itself by a variation in the optical density at 490nm.
The ratio of the rates of formation of the dopachrome enables the activations or the inhibitions obtained with the various molecules tested to de determined precisely.
The sample to be tested is incubated in the presence of tyrosinase from mushroom (Sigma) for 5 minutes under agitation. L-DOPA (Sigma), substrate of the tyrosinase, is incubated for 10 minutes in the dark in the presence or the absence of the molecules to be tested. The calculation of the percentage inhibition is made by comparing the OD of the test to the OD of the negative control without molecule.
Within the context of this in vitro test, the aurone derivatives were tested at final concentrations of 10^-4M and 10^-5M.

Regarding “4,6-Dihydroxybenzofuran-3(2H)-one (R1 = OH) and 6-Hydroxybenzofuran-3(2H)-one (R1 = H) [Example 2]”, the “Inhibition of human tyrosinase after application on normal human melanocytes, percentage inhibition” value on Human tyrosinase (10^-5M, 24 hours) is 9.69%. Moreover, the Percentages viability is listed as 103.84% in the data set on normal human melanocytes (10^-4 M) and 126.09% in the data set on normal human melanocytes (10^-5 M).

Regarding `COc1cc(OC)c2c(c1)OCC2=O` [Example 4, 4,6-Dimethoxybenzofuran-3(2H)-one], the inhibition at 100 µM on Human tyrosinase (24 hours) is 0%. Further, the inhibition at 10 µM on Human tyrosinase (10^-5M, 24 hours) was found to be 0%. For the same compound, the Percentages viability in the data set on normal human melanocytes (10^-4 M) is listed as 106.77%; in the data set with normal human melanocytes (10^-5 M) it was 85.33%.

As to `COc1cc(OC)c2c(c1)O/C(=C\c1ccccc1)C2=O` [Example 5, (Z)-2-Benzylidene-4,6-dimethoxybenzofuran-3(2H)-one], the results for the “Inhibition of tyrosinase from mushroom, percentage inhibition” value in the data set on tyrosinase from mushroom (10^-4M) and in the data set with tyrosinase from mushroom (10^-5M) were 0 ± 1.58% and 0 ± 0.28%, respectively. Moreover, the inhibition at 100 µM on Human tyrosinase (24 hours) was found to be 0%. For the same compound, the inhibition at 10 µM on Human tyrosinase (10^-5M, 24 hours) was determined as 0%. In addition, the Percentages viability with normal human melanocytes (10^-4 M) was 83.1%; in the data set with normal human melanocytes (10^-5 M), 98.55%.

Regarding `COc1cc(OC)c2c(c1)O/C(=C\c1ccc(O)cc1)C2=O` [Example 5a, (Z)-4,6-dimethoxy-2-(4'-hydroxybenzylidene)benzofuran-3(2H)-one], the “Inhibition of tyrosinase from mushroom, percentage inhibition” value turned out to be 0 ± 1.33% in the data set on tyrosinase from mushroom (10^-4M) and 0 ± 3.90% with tyrosinase from mushroom (10^-5M). The inhibition at 100 µM at Human tyrosinase (24 hours) was determined as 14.4%. On Human tyrosinase (10^-5M, 24 hours), the inhibition at 10 µM amounted to 27.4%. The Percentages viability in the data set with normal human melanocytes (10^-4 M) is 104.53%; with normal human melanocytes (10^-5 M), 90.87%.

As for `CCc1ccc(/C=C2\Oc3cc(OC)cc(OC)c3C2=O)cc1` [Example 5b, (Z)-4,6-dimethoxy-2-(4'-ethylbenzylidene)benzofuran-3(2H)-one], the entries for the “Inhibition of tyrosinase from mushroom, percentage inhibition” value with tyrosinase from mushroom (10^-4M) and in the data set on tyrosinase from mushroom (10^-5M) were 0 ± 4.21% and 0 ± 2.5%, respectively. Moreover, the inhibition at 10 µM at Human tyrosinase (10^-5M, 24 hours) stood at 19.4%. Further, the Percentages viability in the data set with normal human melanocytes (10^-5 M) was 99.62%.

With `COc1cc(OC)c2c(c1)O/C(=C\c1ccc(SC)cc1)C2=O` [Example 5c, (Z)-4,6-dimethoxy-2-(4'-methylthiobenzylidene)benzofuran-3(2H)-one], the “Inhibition of tyrosinase from mushroom, percentage inhibition” value with tyrosinase from mushroom (10^-4M) was 0 ± 1.64%; in the data set with tyrosinase from mushroom (10^-5M), 1.07 ± 4.37%. In addition, the inhibition at 100 µM at Human tyrosinase (24 hours) is 0%. The inhibition at 10 µM on Human tyrosinase (10^-5M, 24 hours) was 4.27%. Further, the Percentages viability in the data set on normal human melanocytes (10^-4 M) is reported as 80.08%; in the data set with normal human melanocytes (10^-5 M), 136.13%.

On to `COc1cc(OC)c2c(c1)O/C(=C\c1ccc(C#N)cc1)C2=O` [Example 5d, (Z)-2-(4-cyanobenzylidene)-4,6-dimethoxybenzofuran-3(2H)-one], for which the “Inhibition of tyrosinase from mushroom, percentage inhibition” value in the data set with tyrosinase from mushroom (10^-4M) is recorded as 0 ± 2.42%; in the data set with tyrosinase from mushroom (10^-5M), 0 ± 5.47%. On Human tyrosinase (24 hours), the inhibition at 100 µM worked out at 0%. Further, at Human tyrosinase (10^-5M, 24 hours), the inhibition at 10 µM was determined as 0%. Besides, the Percentages viability is reported as 98.93% with normal human melanocytes (10^-4 M) and 96.51% in the data set with normal human melanocytes (10^-5 M).

On to `COc1cc(O)c2c(c1)O/C(=C\c1ccccc1)C2=O` [Example 6, (Z)-2-Benzylidene-4-hydroxy-6-methoxybenzofuran-3(2H)-one], for which the “Inhibition of tyrosinase from mushroom, percentage inhibition” value is reported as 31.22 ± 3.94% in the data set on tyrosinase from mushroom (10^-4M) and 0 ± 2.27% with tyrosinase from mushroom (10^-5M). At Human tyrosinase (10^-5M, 24 hours), the inhibition at 10 µM is 0%. Moreover, the Percentages viability in the data set with normal human melanocytes (10^-5 M) was determined as 121.56%.

For `COc1cc(O)c2c(c1)O/C(=C\c1ccc(SC)cc1)C2=O` [Example 6c], the “Inhibition of tyrosinase from mushroom, percentage inhibition” value with tyrosinase from mushroom (10^-4M) is listed as 23.65 ± 9.36%; in the data set with tyrosinase from mushroom (10^-5M), 0 ± 5.84%. Also, the inhibition at 10 µM on Human tyrosinase (10^-5M, 24 hours) was determined as 14.2%. In addition, the Percentages viability in the data set on normal human melanocytes (10^-5 M) is listed as 116.24%.

Regarding `COc1cc(O)c2c(c1)O/C(=C\c1ccc(C#N)cc1)C2=O` [Example 6d], the “Inhibition of tyrosinase from mushroom, percentage inhibition” value was determined as 0 ± 3.51% with tyrosinase from mushroom (10^-4M) and 0 ± 3.94% in the data set with tyrosinase from mushroom (10^-5M). At Human tyrosinase (24 hours), the inhibition at 100 µM amounted to 2.31%. Also, on Human tyrosinase (10^-5M, 24 hours), the inhibition at 10 µM stood at 0%. The values for the Percentages viability with normal human melanocytes (10^-4 M) and in the data set on normal human melanocytes (10^-5 M) were 85.65% and 119.36%, respectively.

For `CCc1ccc(/C=C2\Oc3cc(O)cc(O)c3C2=O)cc1` [Example 7b], the “Inhibition of tyrosinase from mushroom, percentage inhibition” value was 54.57 ± 3.01% in the data set on tyrosinase from mushroom (10^-4M) and 14.63 ±6.73% in the data set with tyrosinase from mushroom (10^-5M). Further, the inhibition at 10 µM on Human tyrosinase (10^-5M, 24 hours) is 4.52%. For the same compound, the Percentages viability with normal human melanocytes (10^-4 M) was 63.52%; in the data set with normal human melanocytes (10^-5 M), 143.15%.

As to `CCOc1ccc(/C=C2\Oc3cc(O)cc(O)c3C2=O)cc1` [Example 9a, (Z)-4,6-Dihydroxy-2-(4'-ethoxybenzylidene)benzofuran-3(2H)-one], the inhibition at 100 µM at Human tyrosinase (24 hours) amounted to 5.25%. Further, at Human tyrosinase (10^-5M, 24 hours), the inhibition at 10 µM was determined as 19.9%.

As to `O=C1/C(=C/c2ccccc2O)Oc2cc(O)cc(O)c21` [Example 9c], the inhibition at 100 µM at Human tyrosinase (24 hours) stood at 12.8%. The inhibition at 10 µM on Human tyrosinase (10^-5M, 24 hours) is 4.32%.

`COc1cc(/C=C2\Oc3cc(O)cc(O)c3C2=O)ccc1O` [Example 9d]: the inhibition at 100 µM at Human tyrosinase (24 hours) came to 3.92%. For the same compound, the inhibition at 10 µM at Human tyrosinase (10^-5M, 24 hours) stood at 20.2%.

On to `O=c1cc(CO)occ1O` [Kojic acid, kojic acid], for which the “inhibition (positive control)” value in the data set with tyrosinase from mushroom (kojic acid at 0.01%) amounted to 45%.

In the case of `O=C1O[C@H]([C@@H](O)CO)C(O)=C1O` [VitC, Vitamin C, reference compound], the “Inhibition (%)” value on Human tyrosinase (0.03%) is listed as -5.68%; on Human tyrosinase (0.3%) it was 49.28%; at Human tyrosinase (3%) it was 97.77%.

The term inhibition denotes the drop in the measured response relative to a control, in per cent.
